Legend:
[1] = biological target: Human full-length SHP2 recombinant protein (Homo sapiens (Human), UniProt Q06124); experiment: Assay of full-length SHP2 phosphatase activity; format: biochemical; details: DiFMUP substrate, with activating peptide
Outline: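 Full-length human SHP2 preincubated 30 min at RT with activating peptide and compound (1% DMSO final). DiFMUP substrate added, reaction 60 min at 25 °C in dark. Fluorescence at ex 355/em 460 nm; IC50 from 4-parameter fit against enzyme-free and vehicle controls.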

Miapaca2 3D spheroids = experiment: Assay of cell proliferation on Miapaca2 3D spheroids; format: cell-based; details: CellTiter-Glo 3D, 5 days treatment
Method: Example 4 Assay of Cell Proliferation on Miapaca2 3D Spheroids
1. Reagents and Materials • CellTiter-Glo® 3D Cell Viability Assay Kit: Promega, Cat #G9683; • CellCarrier Spheroid ULA 96-well plate: Corning, Cat #4515; • Instrument: Envision, Perkinelmer; • Cell line: Miapaca2, ATCC, Cat #CRL-1420.
2. Preparation of Reaction Solutions • The test compound was dissolved in DMSO and diluted with DMSO to 3000.0 μM, and the compound was further 3-fold diluted with DMSO to: 1000.0, 333.3, 111.1, 37.0, 12.3, 4.1, and 1.4 μM. Then 2 μL of the compound at different dilution concentrations was added to 198 μL of a 1640 medium to prepare a 10× test compound, wherein DMSO was at the concentration of 1% (DMSO was at the final concentration of 0.1%).
3. Experimental Methods • Day0: Digest cells and count cell numbers. Miapaca2 cells were inoculated into a spheroid ULA 96-well plate at a density of 300 cells/well at 100 μL/well and cultured in a cell incubator at 5% CO2 and 37° C. • Day2: The cell spheroids formed at day2. Add 10 μL of 10× test compounds to the 96-well plate. To the cell positive control well was added 10 μL of 1% DMSO 1640 medium. Incubate the cell spheroids in a cell incubator at 5% CO2 and 37° C. for additional 5 days. • Cell viability assay: Add 50 μL of CellTiter-Glo reagent to each well, place the plate in a microplate shaker, and lysis under shaking at 900 rpm at room temperature for 5 minutes. Then incubate the plate at room temperature in the dark for 30 minutes. • The luminescene of each well was detected on Envision2104.
Cell Survial %=(Lum(d7 treatment)−Lum(d2 cell))/(Lum(d7 cell)−Lum(d2 cell))×100
Wherein: • Lum(d7 treatment) refers to the luminescene of the test compound treated cells on day7; • Lum(d2 cell) refers to the luminescene of the 0.1% DMSO treated Miapaca2 cells on day2; • Lum(d7 cell) refers to the luminescene of the 0.1% DMSO treated Miapaca2 cells on day7. • IC50 values were calculated following formula 205: y=A+((B−A)/(1+((C/X)^D))), by using the XL-Fit 5.0 software.

[2] = test system: pERK1/2 (Thr202/Tyr204) in Miapaca2 cells; experiment: Assay of intracellular pERK1/2 (Thr202/Tyr204) phosphorylation; format: cell-based; details: pERK1/2 (Thr202/Tyr204) HTRF
Outline: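 Miapaca2 cells treated 2 h at 37 °C with compound (3-fold series; final DMSO 0.5%), then lysed 1 h. pERK1/2 (Thr202/Tyr204) detected by HTRF (665/615 nm ratio) after 2 h at 25 °C; normalized to cell-free lysis buffer and DMSO-treated cell controls; IC50 by four-parameter fit.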

[3] = Homo sapiens, MIA PaCa-2, 120 h

SMILES	IC50 [1]	IC50 (Miapaca2 3D spheroids; [3])	IC50 ([2]; Homo sapiens, MIA PaCa-2, 2 h)	IC50 (Miapaca2 3D spheroids)	IC50 ([2]; 2 hours)
CCNC(=O)C#Cc1ccc2c(c1)[C@@H](N)C1(CCN(c3ncc(Sc4ccnc(N)c4Cl)nc3C)CC1)O2 [Compound 259]	4 nM	5 nM	23 nM	–	–
C#Cc1cc(F)c2c(c1)[C@@H](N)C1(CCN(c3nc(C)n(-c4cccc(Cl)c4Cl)c(=O)c3C)CC1)C2 [Compound 168]	10 nM	77 nM	34 nM	–	–
CNC(=O)C#Cc1ccc2c(c1)[C@@H](N)C1(CCN(c3nc(C)n(-c4cccc(Cl)c4Cl)c(=O)c3C)CC1)C2 [Compound 174]	6 nM	53 nM	33 nM	–	–
C#Cc1ccc2c(c1)[C@@H](N)C1(CCN(c3ncc(Sc4ccnc(N)c4Cl)c(=O)n3C)CC1)O2 [Compound 295]	2 nM	4 nM	22 nM	–	–
CCNC(=O)C#Cc1ccc2c(c1)[C@@H](N)C1(CCN(c3cnc(Sc4ccnc(N)c4Cl)c(N)n3)CC1)C2 [Compound 226]	1 nM	0.4 nM	2 nM	–	–
CC#Cc1ccc2c(c1)[C@@H](N)C1(CCN(c3ncc(Sc4ccnc(N)c4Cl)c(=O)n3C)CC1)C2 [Compound 288]	2 nM	2 nM	4 nM	–	–
CCNC(=O)C#Cc1ccc2c(c1)[C@@H](N)C1(CCN(c3cnc(Sc4c(F)cnc(N)c4Cl)cn3)CC1)C2 [Compound 269]	0.9 nM	3 nM	7 nM	–	–
COCCNC(=O)C#Cc1ccc2c(c1)[C@@H](N)C1(CCN(c3cnc(Sc4ccnc(N)c4F)cn3)CC1)C2 [Compound 298]	0.3 nM	0.3 nM	1 nM	–	–
NC(=O)NCC#Cc1ccc2c(c1)[C@@H](N)C1(CCN(c3cnc(Sc4ccnc(N)c4Cl)c(N)n3)CC1)C2 [Compound 159, (S)-1-(3-(1-amino-1′-(6-amino-5-((2-amino-3-chloropyridin-4-yl)thio)pyrazin-2-yl)-1,3-dihydrospiro[indene-2,4′-piperidin]-6-yl)prop-2-yn-1-yl)urea]	1 nM	6 nM	5 nM	–	–
C#Cc1ccc2c(c1)[C@@H](N)C1(CCN(c3cc(=O)n(-c4ccc(C#N)c(OC)c4Cl)c(C)n3)CC1)C2 [Compound 183]	2 nM	68 nM	–	–	50 nM
COc1nccc(Sc2nc(C)c(N3CCC4(CC3)Cc3ccc(C#CC(=O)N(C)C)cc3[C@H]4N)nc2N)c1Cl [Compound 204]	6 nM	121 nM	54 nM	–	–
CNC(=O)C#Cc1ccc2c(c1)[C@@H](N)C1(CCN(c3cnc(Sc4cc(N)nc(Cl)c4Cl)cn3)CC1)C2 [Compound 254]	3 nM	10 nM	11 nM	–	–
CNC(=O)C#Cc1ccc2c(c1)[C@@H](N)C1(CCN(c3cc(=O)n(-c4ccc(F)c(OC)c4Cl)c(C)n3)CC1)C2 (atropisomer, axis not shown) [Compound 201]	1 nM	18 nM	–	–	6 nM
COCC#Cc1ccc2c(c1)[C@@H](N)C1(CCN(c3cc(=O)n(-c4ccc(F)c(OC)c4Cl)c(C)n3)CC1)C2 [Compound 158]	3 nM	–	–	32 nM	31 nM
Nc1nccc(Sc2cnc(N3CCC4(CC3)Cc3ccc(C#CC(=O)O)cc3[C@H]4N)cn2)c1Cl [Compound 279, (S)-3-(1-amino-1′-(5-((2-amino-3-chloropyridin-4-yl)thio)pyrazin-2-yl)-1,3-dihydrospiro[indene-2,4′-piperidin]-6-yl)propiolic acid]	0.4 nM	42 nM	183 nM	–	–

The next lines start with the values.

IC50 [1]	IC50 (Miapaca2 3D spheroids; [3])	IC50 ([2]; Homo sapiens, MIA PaCa-2, 2 h)	IC50 (Miapaca2 3D spheroids)	IC50 ([2]; 2 hours)	SMILES
2 nM	–	–	28 nM	25 nM	C#Cc1ccc2c(c1)[C@@H](N)C1(CCN(c3cc(=O)n(-c4ccc(F)c(OC)c4Cl)c(C)n3)CC1)C2 [Compound 157]
1 nM	–	–	38 nM	19 nM	CNC(=O)C#Cc1ccc2c(c1)[C@@H](N)C1(CCN(c3cc(=O)n(-c4ccc(F)c(F)c4Cl)c(C)n3)CC1)C2 (atropisomer, axis not shown) [Compound 209]
1 nM	243 nM	737 nM	–	–	Cc1nc(Sc2ccnc(N)c2Cl)c(N)nc1N1CCC2(CC1)Cc1ccc(C#CC(=O)O)cc1[C@H]2N [Compound 283]
0.4 nM	1 nM	5 nM	–	–	CN(C)C(=O)C#Cc1ccc2c(c1)[C@@H](N)C1(CCN(c3cnc(Sc4ccnc(N)c4Cl)cn3)CC1)C2 [Compound 302]
1 nM	12 nM	5 nM	–	–	CNC(=O)C#Cc1ccc2c(c1)[C@@H](N)C1(CCN(c3nc(C)c(Sc4ccnc(N)c4Cl)nc3CO)CC1)C2 [Compound 199]
3 nM	38 nM	29 nM	–	–	COCC#Cc1ccc2c(c1)[C@@H](N)C1(CCN(c3cc(=O)n(-c4ccc(C#N)c(OC)c4F)c(C)n3)CC1)C2 [Compound 197]
2 nM	0.9 nM	8 nM	–	–	CNC(=O)C#Cc1ccc2c(c1)[C@@H](N)C1(CCN(c3ncc(Sc4ccnc(N)c4Cl)nc3C)CC1)C2 [Compound 232]
5 nM	10 nM	26 nM	–	–	CNC(=O)C#Cc1ccc2c(c1)[C@@H](N)C1(CCN(c3ncc(Sc4ccnc(N)c4Cl)nc3C)CC1)O2 [Compound 266]
0.9 nM	2 nM	7 nM	–	–	CCNC(=O)C#Cc1ccc2c(c1)[C@@H](N)C1(CCN(c3ncc(Sc4ccnc(N)n4)nc3C)CC1)C2 [Compound 261]
1.1 nM	3.2 nM	14 nM	–	–	CNC(=O)C#Cc1ccc2c(c1)[C@@H](N)C1(CCN(c3ncc(Sc4ccnc(N)n4)nc3C)CC1)C2 [Compound 233]
2 nM	3 nM	4 nM	–	–	Cc1nc(Sc2ccnc(N)c2Cl)c(N)nc1N1CCC2(CC1)Cc1ccc(C#CC(N)=O)cc1[C@H]2N [Compound 276]
1 nM	19 nM	31 nM	–	–	CCNC(=O)C#Cc1ccc2c(c1)[C@@H](N)C1(CCN(c3ncc(Sc4ccnc(N)c4Cl)nn3)CC1)C2 [Compound 249]
11 nM	35 nM	35 nM	–	–	Cc1nc(N2CCC3(CC2)Cc2ccc(C#CC(N)=O)cc2[C@H]3N)cnc1Sc1cc(N)nc(Cl)c1Cl [Compound 280]
3 nM	21 nM	8 nM	–	–	CN(C)C(=O)C#Cc1ccc2c(c1)[C@@H](N)C1(CCN(c3ncc(Sc4ccnc(N)c4Cl)n4nccc34)CC1)C2 [Compound 196]
2 nM	41 nM	48 nM	–	–	C#Cc1ccc2c(c1)[C@@H](N)C1(CCN(c3ncc(Sc4ccnc(C)n4)n4nccc34)CC1)C2 [Compound 178]
< 0.5 nM	0.4 nM	2 nM	–	–	CNC(=O)C#Cc1ccc2c(c1)[C@@H](N)C1(CCN(c3cnc(Sc4cccnc4Cl)c(N)n3)CC1)C2 [Compound 248]
1 nM	1 nM	3 nM	–	–	CCNC(=O)C#Cc1ccc2c(c1)[C@@H](N)C1(CCN(c3cnc(Sc4cc(N)ncc4Cl)c(N)n3)CC1)C2 [Compound 247]
2 nM	4 nM	5 nM	–	–	C#Cc1ccc2c(c1)[C@@H](N)C1(CCN(c3nc(N)c(-c4cn(C)c5ncccc45)c(=O)n3C)CC1)C2 [Compound 284]
3.9 nM	2.4 nM	4 nM	–	–	CCCNC(=O)C#Cc1ccc2c(c1)[C@@H](N)C1(CCN(c3nc(N)c(Sc4ccnc(N)c4Cl)nc3C)CC1)C2 [Compound 237]
1 nM	1 nM	2 nM	–	–	C#Cc1ccc2c(c1)[C@@H](N)C1(CCN(c3ncc(Sc4ccnc(N)c4Cl)c(=O)n3C)CC1)C2 [Compound 299, (S)-5-((2-amino-3-chloropyridin-4-yl)thio)-2-(1-amino-6-ethynyl-1,3-dihydrospiro[indene-2,4′-piperidin]-1′-yl)-3-methylpyrimidin-4(3H)-one]
